Measured values reported in patent publication US20250243219A1, “MACROCYCLIC COMPOUNDS AND USES THEREOF” (Cypralis Limited, priority 2022, published 2025).
Read-outs that look alike come from different tables or passages of the source.

Tests used:
pancreatic acinar cells = experiment: Protection of pancreatic acinar cells against TLCS toxicity (propidium iodide uptake, FIG. 1); assay type: cell-based; settings: propidium iodide uptake as measure of necrotic cells
Excerpt: FIG. 1 propidium iodide (PI) up-take as a measure of the number of dead pancreatic acinar cells (through necrosis) as a percentage against a number of treatments with Compound (2) and cyclosporin A and controls in an in-vitro model based on pancreatic acinar cells against the toxicity of the bile acid taurolithocholic acid-3-sulphate (TLCS);
WO 2021/115299 (Zuo) discloses compounds that protect against acute kidney injury caused by many different causes. The same compounds are disclosed in U.S. Pat. No. 6,583,265 (C-Chem AG) as cyclophilin inhibitors. There is no enzyme inhibiting, receptor binding or ion channel activity known for these compounds other than inhibition of cyclophilins. It can therefore be concluded that the compounds of the present invention, which are potent cyclophilin inhibitors but have no activity on other enzymes or receptors, have the same spectrum of properties.
FIG. 1 illustrates two sets of results.

[1] = Pharmacokinetics in mice, subcutaneous administration; assay type: in vivo, mice (strain FVB/N); settings: subcutaneous 10 mg/kg; for Tmax / Cmax / half-life: sc
Experimental: (§1) Test compounds were administered to rodents (mice or rats) either orally, subcutaneously or intravenously. To determine blood or plasma concentrations blood samples were taken at different time points and analysed for the concentration of test compound by LC/MS. Brain concentrations were measured by sacrificing animals and LC/MS analysis of brain homogenate. FIG. 3 illustrates graphs for the concentration (ng/ml) Compound (2) in blood, blood plasma and in the brain at 30 minutes to 7 hours after the same dosage administered sub-cutaneously.

[2] = Blood-brain barrier penetration, intravenous dosing; assay type: in vivo, rodents (mice or rats); settings: 3 mg/kg intravenous
Experimental: Test compounds were administered to rodents (mice or rats) either orally, subcutaneously or intravenously. To determine blood or plasma concentrations blood samples were taken at different time points and analysed for the concentration of test compound by LC/MS. Brain concentrations were measured by sacrificing animals and LC/MS analysis of brain homogenate.
The results for Compounds (2), (19), (6) and (27) are summarised in Table 6 showing concentrations of the Compounds in blood plasma and the brain.

[3] = test system: kainic acid treated NMRI mice; experiment: Kainic acid model of epilepsy; assay type: in vivo, Male NMRI mice; settings: 150 mg/kg for 3 consecutive days, kainic acid 45 mg/kg s.c., n=21
Experimental: Male NMRI mice (n=21) were given 150 mg/kg of Compound (2) (60% PEG400/water solution) for 3 consecutive days. 2 hours after the last dose the animals were given subcutaneously 45 mg/kg of kainic acid. Behaviour was monitored for 3 hours. On day 7 after receiving kainic acid the animals were sacrificed and brain analysed by immunohistochemistry for markers of neurodegeneration.

[4] = Pharmacokinetics in mice, oral dose; assay type: in vivo, mice (strain FVB/N); settings: oral 10 mg/kg
Experimental: as §1, with “FIG. 2” for “FIG. 3”, “after oral treatment.” for “after the same dosage administered sub-cutaneously.”

EAE C57BL/6J mice = experiment: Experimental autoimmune encephalomyelitis (EAE) mouse model of multiple sclerosis; assay type: in vivo; settings: 75 mg/kg orally BID for 14 days
Experimental: C57BL/6 mice are the most commonly used strain. For the induction of EAE, typically, the immunogenic epitope MOG35-55 of myelin oligodendrocyte glycoprotein is suspended in complete Freund's adjuvant (CFA) prior to immunization. Thereafter, pertussis toxin (PT) is applied on the day of immunization and a couple of days later to facilitate the induction of EAE. Animals are assessed by body weight change, EAE scoring and histopathological examination for both inflammation and demyelination.
Compound (2) was dissolved at a dose level of 75 mg/kg with a final concentration of 20 mg/ml (in 66.6% PEG/water), and administered orally BID (i.e. every 12 hours) to C57BL/6J mice at a dose volume of 3.75 ml/kg. Treatment was started concomitant with the first signs of disease (around days 10-12) and continued for 14 days. The animals were evaluated for general clinical signs, body weight change and neurological score. After termination of treatment the animals were sacrificed, brains and spinal cords were collected, fixed in formalin 4% and processed for staining with haematoxylin and eosin.

cyclophilin D = cyclophilin D (Homo sapiens (Human), UniProt P30405); experiment: Functional peptidyl prolyl isomerase (PPIase) spectrophotometric assay, cyclophilin D; assay type: biochemical; settings: second value of CypA/D cell; read-out: Ki CypD
Procedure, shortened: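 Cuvette-based UV/Vis assay of PPIase-catalysed cis-to-trans isomerisation of a peptide substrate. First-order rate constants fitted to absorbance, background rate subtracted. Ki derived from rate constant versus inhibitor concentration, typically 6-point curves in duplicate.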

[5] = test system: animal models of acute pancreatitis; settings: Mukherjee et al., Gut Online, 12 Jun. 2015; cited from earlier work
[6] = FVB/N, mouse, brain, read-out: Tmax Brain
[7] = FVB/N, mouse, plasma, read-out: Cmax Plasma
[8] = FVB/N, mouse, plasma, read-out: T1/2 Plasma (converted)
[9] = FVB/N, mouse, plasma, read-out: Tmax Plasma
[10] = FVB/N, mouse, whole blood, read-out: Cmax Whole blood
[11] = FVB/N, mouse, whole blood, read-out: T1/2 Whole blood (converted)
[12] = FVB/N, mouse, whole blood, read-out: Tmax Whole blood
[13] = vs vehicle group, not statistically significant

Sequence of cyclophilin D (P30405 30-207, species assumed): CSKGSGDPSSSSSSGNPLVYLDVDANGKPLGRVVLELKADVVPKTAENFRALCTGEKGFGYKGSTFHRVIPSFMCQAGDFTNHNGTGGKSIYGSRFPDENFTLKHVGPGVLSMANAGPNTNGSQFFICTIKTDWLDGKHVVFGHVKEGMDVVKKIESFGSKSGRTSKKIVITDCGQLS

SMILES: CC(C)[C@@H]1OC(=O)C(C)(C)/C=C/c2ccc3ccc(nc3c2)N(C)NC(=O)[C@@H]2CCCN(N2)C(=O)[C@H](C)NC1=O [Compound (2)]
- Protection of pancreatic acinar cells against toxicity of TLCS (pancreatic acinar cells): protect pancreatic acinar cells against the toxicity
- Kp ([1]; FVB/N, mouse, brain and blood): 0.9
- Tmax [1, 6]: 120 min
- Cmax [1, 7]: 1640 ng/mL
- half-life [1, 8]: 106 min
- Tmax [1, 9]: 30 min
- Cmax [1, 10]: 2640 ng/mL
- half-life [1, 11]: 190 min
- Tmax [1, 12]: 30 min
- AUC0-t Brain [1]: 3370 ng/mL/h
- AUC0-t Plasma [1]: 3730 ng/mL/h
- AUC0-t Whole blood [1]: 8150 ng/mL/h
- Blood/plasma [1]: 2.2 Ratio
- Cmax Brain [1]: 563 ng/mL
- Blood-brain barrier passage [2]: passed the blood-brain barrier
- concentration at 30 min ([2]; brain, read-out: Brain concentration): 170 ng/mL
- concentration at 30 min ([2]; plasma, read-out: Plasma concentration): 222 ng/mL
- Number of animals with visible signs of neurodegeneration ([3]; control group 5 animals): 2 animals
- Percent of animals with visible signs of neurodegeneration ([3]; control group 24%): 9%
- Kp ([4]; FVB/N, mouse, brain and blood): 0.72
- Tmax [4, 6]: 420 min
- Cmax [4, 7]: 582 ng/mL
- half-life [4, 8]: 180 min
- Tmax [4, 9]: 30 min
- Cmax [4, 10]: 1490 ng/mL
- half-life [4, 11]: 327 min
- Tmax [4, 12]: 30 min
- AUC0-t Plasma [4]: 3180 ng/mL/h
- AUC0-t Whole blood [4]: 12500 ng/mL/h
- Blood/plasma [4]: 2.87 Ratio
- Cmax Brain [4]: 297 ng/mL
- Extent of spinal cord damage (EAE C57BL/6J mice; vs untreated control, FIG. 4): significant reduction
- Body weight gain (EAE C57BL/6J mice; [13]): better body weight gain
- Clinical score (EAE C57BL/6J mice; [13]): reduction in the clinical score
- Ki (cyclophilin D): 17 nM
- Protection in animal models of acute pancreatitis [5]: protective
